# Assay results reported in US20210269451A1, “PYRIDINYL HETEROCYCLYL COMPOUNDS FOR THE TREATMENT OF AUTOIMMUNE DISEASE” (Hoffmann-La Roche Inc., priority 2018, published 2021).
# Target: T1, human TLR7 (Homo sapiens, UniProt Q9NYK1)
# T1 construct: host or cells: HEK293-Blue-hTLR-7 (HEK293)
# T1 sequence (Q9NYK1 27-1049): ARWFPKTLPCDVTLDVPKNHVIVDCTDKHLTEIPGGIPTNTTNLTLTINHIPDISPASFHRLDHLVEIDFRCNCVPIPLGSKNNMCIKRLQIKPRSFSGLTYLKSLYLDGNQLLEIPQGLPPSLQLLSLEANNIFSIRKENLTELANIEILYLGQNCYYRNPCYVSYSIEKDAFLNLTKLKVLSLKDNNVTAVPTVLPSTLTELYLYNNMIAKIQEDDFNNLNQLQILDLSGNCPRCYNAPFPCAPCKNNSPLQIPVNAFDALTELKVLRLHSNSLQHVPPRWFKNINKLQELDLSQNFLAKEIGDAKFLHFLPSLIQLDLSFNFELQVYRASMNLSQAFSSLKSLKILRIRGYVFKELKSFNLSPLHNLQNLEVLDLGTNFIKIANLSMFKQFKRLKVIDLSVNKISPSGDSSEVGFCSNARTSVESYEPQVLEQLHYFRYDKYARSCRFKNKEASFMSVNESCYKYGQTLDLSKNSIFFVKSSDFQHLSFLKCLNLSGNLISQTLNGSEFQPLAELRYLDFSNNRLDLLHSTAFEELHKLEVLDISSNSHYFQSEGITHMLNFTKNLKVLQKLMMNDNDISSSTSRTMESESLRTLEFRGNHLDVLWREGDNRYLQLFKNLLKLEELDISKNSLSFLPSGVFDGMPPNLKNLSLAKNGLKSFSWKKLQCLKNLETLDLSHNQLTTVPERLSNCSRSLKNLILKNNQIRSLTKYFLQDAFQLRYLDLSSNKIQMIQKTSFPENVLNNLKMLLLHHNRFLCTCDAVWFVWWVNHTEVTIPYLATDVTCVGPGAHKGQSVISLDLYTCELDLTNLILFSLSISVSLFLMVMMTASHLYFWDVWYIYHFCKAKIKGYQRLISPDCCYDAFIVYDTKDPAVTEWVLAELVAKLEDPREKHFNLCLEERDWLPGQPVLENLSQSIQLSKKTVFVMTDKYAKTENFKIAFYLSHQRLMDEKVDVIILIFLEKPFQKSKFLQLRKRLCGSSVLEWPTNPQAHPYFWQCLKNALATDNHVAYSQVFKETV
# Experiment: HEK293-Blue-hTLR-7 cells assay
# Assay type: cell-based
# Conditions: HEK293-Blue-hTLR7 cells, R848 stimulation, 20 hrs, SEAP reporter; read-out: HEK/hTLR7 IC50
# Procedure: The following tests were carried out in order to determine the activity of the compounds of formula (I) and (Ia) in HEK293-Blue-hTLR-7/8/9 cells assay.
# HEK293-Blue-hTLR-7 cells assay:
# A stable HEK293-Blue-hTLR-7 cell line was purchased from InvivoGen (Cat. #: hkb-htlr7, San Diego, Calif., USA). These cells were originally designed for studying the stimulation of human TLR7 by monitoring the activation of NE-κB. A SEAP (secreted embryonic alkaline phosphatase) reporter gene was placed under the control of the IFN-β minimal promoter fused to five NE-κB and AP-1-binding sites. The SEAP was induced by activating NE-κB and AP-1 via stimulating HEK-Blue hTLR7 cells with TLR7 ligands. Therefore the reporter expression was declined by TLR7 antagonist under the stimulation of a ligand, such as R848 (Resiquimod), for incubation of 20 hrs. The cell culture supernatant SEAP reporter activity was determined using QUANTI-Blue™ kit (Cat. #: rep-qbl, Invivogen, San Diego, Ca, USA) at a wavelength of 640 nm, a detection medium that turns purple or blue in the presence of alkaline phosphatase.
# HEK293-Blue-hTLR7 cells were incubated at a density of 250,000-450,000 cells/mL in a volume of 170 μL in a 96-well plate in Dulbecco's Modified Eagle's medium (DMEM) containing 4.5 g/L glucose, 50 U/mL penicillin, […], […], 2 mM L-glutamine, 10% (v/v) heat-inactivated fetal bovine serum with addition of 20 μL test compound in a serial dilution in the presence of final DMSO at 1% and 10 μL of 20 uM R848 in above DMEM, perform incubation under 37° C. in a CO2 incubator for 20 hrs. Then 20 μL of the supernatant from each well was incubated with 180 μL Quanti-blue substrate solution at 37° C. for 2 hrs and the absorbance was read at 620˜655 nm using a spectrophotometer. The signalling pathway that TLR7 activation leads to downstream NE-κB activation has been widely accepted, and therefore similar reporter assay was modified for evaluating TLR7 antagonist.
row,IC50,Structure (SMILES)
1,20 nM,"Cc1cc(N2CC3(CN(C[C@H]4CN(c5ccc(C#N)c6ncccc56)C[C@@H](C)O4)C3)C2)cc(C(C)O)n1 (stereo partly drawn) [Example 44, 5-[(2S,6R)-2-[[2-[2-(1-hydroxyethyl)-6-methyl-4-pyridyl]-2,6-diazaspiro[3.3]heptan-6-yl]methyl]-6-methyl-morpholin-4-yl]quinoline-8-carbonitrile]"
2,39 nM,"C[C@@H]1CN(c2ccc(C#N)c3ncccc23)C[C@H](CN2CCN(c3cc(N)nc(CO)c3)CC2)O1 [Example 45, 5-[(2S,6R)-2-[[4-[2-amino-6-(hydroxymethyl)-4-pyridyl]piperazin-1-yl]methyl]-6-methyl-morpholin-4-yl]quinoline-8-carbonitrile]"
3,32 nM,"CC(O)c1cc(N2CC3(CN(C[C@H]4CN(c5ccc(C#N)c6ncccc56)C[C@@H](C)O4)C3)C2)ccn1 (stereo partly drawn) [Example 46, 5-[(2S,6R)-2-[[2-[2-(1-hydroxyethyl)-4-pyridyl]-2,6-diazaspiro[3.3]heptan-6-yl]methyl]-6-methyl-morpholin-4-yl]quinoline-8-carbonitrile]"
4,55 nM,"C[C@@H]1CN(c2ccc(C#N)c3ncccc23)C[C@H](CN2CC3(C2)CN(c2ccnc(C(C)(C)O)c2)C3)O1 [Example 48, 5-[(2S,6R)-2[[2-[2-(1-hydroxy-1-methyl-ethyl)-4-pyridyl]-2,6-diazaspiro[3.3]heptan-6-yl]methyl]-6-methyl-morpholin-4-yl]quinoline-8-carbonitrile]"
5,13 nM,"C[C@@H]1CN(c2ccc(C#N)c3ncccc23)C[C@H](CN2CC3(C2)CN(c2ccnc(C4CC4)c2)C3)O1 [Example 49, 5-[(2S,6R)-2[[2-(2-cyclopropyl-4-pyridyl)-2,6-diazaspiro[3.3]heptan-6-yl]methyl]-6-methyl-morpholin-4-yl]quinoline-8-carbonitrile]"
6,10 nM,Cc1cc(N2CCN(C[C@H]3CN(c4ccc(C#N)c5ncccc45)C[C@@H](C)O3)CC2)cc(CO)n1 [Example 50]
7,< 3 nM,C[C@@H]1CN(c2ccc(C#N)c3ncccc23)C[C@H](CN2CC3(C2)CN(c2ccnc(CO)c2)CCO3)O1 [Example 51]
